Measured values as given in patent US6562859B1, “Ureido derivatives of poly-4-amino-2-carboxy-1-methyl pyrrole compounds for inhibition of inflammation” (The United States of America as represented by the …, priority 1997, dated 2003).
Blank lines part the entries; values can stand above or below the molecule they belong to.

Columns and labels:
[1] = biological target: T1, CXCR4 chemokine receptor (Homo sapiens, UniProt P61073); experiment: Competition with 44716.111 mAb binding to CXCR4 on human monocytes (FACS); details: human monocytes pre-incubated 15 min at 4° C. with 125 nM SDF-1α or 200 μM NSC 651016
T1 construct: Human monocytes, which express the CXCR4 chemokine receptor; endogenous in cells; host or cells: human monocytes
Procedure: Competition assays were performed with the 44716.111 mouse monoclonal antibody (mAb), which binds to the extracellular domain of the CXCR4 chemokine receptor. Human monocytes, which express the CXCR4 chemokine receptor, were pre-incubated with either 125 nM of SDF-1α or 200 μM NSC 651016 for 15 min at 4° C. Control monocyte cells were placed at 4° C. for 15 min. The cells were then incubated with the 44716.111 mAb for an additional 30 min. The presence of the 44716.111 mAb was detected by incubating the cells with FITC-conjugated anti-murine antibody and subjecting the cells to FACS Analysis.

[2] = test system: Murine spleen cells; experiment: Chemotaxis of non-adherent murine spleen cells in vitro; type: cell-based; details: 10 ng/ml RANTES alone; media alone = 1
Procedure: Murine spleen cells were “panned” on plastic to remove the adherent cells. The recovered cells were incubated for 30 minutes at 37° C. with one of the following: NSC 651015, NSC 651016, NSC 662162, and NSC 680651. […] In assays similarly performed using either the MIP-1α or the SDF-1α chemokine rather than RANTES, chemotactic inhibition was also observed in the presence of formula I compounds.

T1 sequence (P61073 whole entry): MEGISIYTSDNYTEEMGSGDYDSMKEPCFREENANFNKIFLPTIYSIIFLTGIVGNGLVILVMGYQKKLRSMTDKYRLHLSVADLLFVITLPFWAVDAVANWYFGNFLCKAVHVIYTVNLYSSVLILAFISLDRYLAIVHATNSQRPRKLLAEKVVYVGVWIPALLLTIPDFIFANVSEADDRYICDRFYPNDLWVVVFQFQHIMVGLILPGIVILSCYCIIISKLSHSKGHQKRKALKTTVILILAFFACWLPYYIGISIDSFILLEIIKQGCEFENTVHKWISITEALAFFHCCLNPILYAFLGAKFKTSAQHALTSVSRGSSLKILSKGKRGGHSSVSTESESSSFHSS

- 44716.111 antibody binding to the CXCR4 receptor [1]: decrease in 44716.111 antibody binding
Molecule: SDF-1α

B1: RANTES: β-chemokine used as chemoattractant stimulus (protein, UniProt P13501 24-91, looked up)
C-C motif chemokine 5: SPYSSDTTPCCFAYIARPLPRAHIKEYFYTSGKCSNPAVVFVTRKNRQVCANPEKKWVREYINSLEMS
- chemotactic index [2]: 2.3
